Assay results as given in US20110144127A1, “AGENTS FOR TREATMENT OF GLAUCOMATOUS RETINOPATHY AND OPTIC NEUROPATHY” (ALCON INC., priority 2003, published 2011).

How the values were obtained:
[1] = tested on: cultured adult rat retinal ganglion cells; assay: Glutamate-induced toxicity in cultured adult rat retinal ganglion cells (survival by counting Thy-1-positive healthy cells); type: cell-based
Protocol: Cells were treated with the indicated compounds for 3 days. Survival was assayed by counting Thy-1-positive healthy cells. The asterisk * represents a significant difference from the control values by one-way ANOVA analysis of variance between groups, then Dunnett's test.
Adult Sprague-Dawley rats were euthanized by CO2 asphyxiation. Their eyes were enucleated and placed in NEUROBASAL™ medium (Gibco, Gaithersburg, Md.). The retina from each eye was detached and isolated. Retinal cells were dissociated by combining up to 20 retinae with 5 mL of papain solution containing 10 mg papain, 2 mg DL-cysteine, and 2 mg bovine serum albumin in 5 ml of NEUROBASAL™ medium, for 25 min at 37° C., then washed 3 times with 5 mL RGC medium (NEUROBASAL™) medium supplemented as cited in Example 2 and with 1% fetal calf serum. Retinal pieces were triturated by passing through a fire-polished disposable pipet several times until cells were dispersed. The cell suspension was placed onto a poly-D-lysine- and laminin-coated 8-well chambered culture slide. […] The cells were then cultured at 95% air/5% CO2 at 37° C. for three days.
At the end of the incubation period, the cells were fixed and labeled for Thy-1, a RGC marker, by immunocytochemistry. Cell survival was quantified by manually counting Thy-1-positive healthy cells in each well.

[2] = tested on: quinone reductase, glutathione-S-transferase, and glutathione reductase; settings: various cell lines including human adult retinal pigment epithelial cells; cited from earlier work

Row | SMILES | reduction of the surviving cells ([1]; glutamate 100 μM for 3 days, adult rat RGC) | protection from glutamate-induced toxicity (survival of Thy-1-positive healthy cells) ([1]; sulforaphane 0.5 μM with glutamate 100 μM, 3 days, adult Sprague-Dawley rat RGC) | induction of detoxification enzymes [2]
1 | N[C@@H](CCC(=O)O)C(=O)O [glutamate] | 40-60% |  | 
2 | C[S+]([O-])CCCCN=C=S (stereo not drawn) [sulforaphane] |  | prevented such toxicity | known to induce quinone reductase, glutathione-S-transferase, and glutathione reductase
